For data set [1], the system named is Escherichia coli RtcB ligase. Briefly: E. coli RtcB RNA ligation assay (3′-P and 5′-OH termini, urea-polyacrylamide gel). It counts as biochemical. The source says:
FIG. 1. […] (A) RNA ligation substrate that mimics a broken tRNA anti-codon. FAM label allows visualization in a urea-polyacrylamide gel. […] (B) Cofactor- and metal-dependence of ligation. Reactions contain manganese, except in the “—Mn^2+” lane. The lane labeled “C78A” is a ligation reaction performed with RtcB that has a C78A substitution within the predicted metal binding site. (C) Ligation assays using GTP analogues as cofactors. […] (E) RNA termini specificity of RtcB. Modifications to the ligatable ends of the tRNA mimic substrate were made as indicated and tested in ligation reactions.
To assay for ligation, we initially used two single-stranded RNA (ssRNA) oligos that were each 10 nucleotides in length. The 5′ RNA fragment was labeled with 6-carboxyfluorescein (FAM) at its 5′ end and phosphorylated at its 3′ end. The 3′ RNA fragment had hydroxyl groups at each end. We intended to convert the 3′-P into a 2′,3′-cyclic phosphate by incubation with RtcA and ATP, so as to produce a suitable substrate for RtcB.
These reactions were performed with high concentrations of GTP analogues to ensure saturation of RtcB.
We investigated the RNA termini structure requirements for ligation by modifying the ends of our tRNA mimic substrate. First, all four combinations of either a phosphate or hydroxyl group at each termini were sampled while maintaining a 2′-OH on the 5′ side of the ligation junction. […] Next, the importance of the terminal ribose 2′-OH for ligation was probed by replacing this hydroxyl group with either hydrogen (2′-H) or fluorine (2′-F).

A further data set addresses human RtcA (Homo sapiens, UniProt O00442). The settings on record: read-out: ATP KM; cited from earlier work.
The test system of data set [2] is P. horikoshii RtcB. Nature of the data set: P. horikoshii RtcB RNA ligation assay. It counts as biochemical, Pyrococcus horikoshii. The settings on record: Archease 0.25 μM, NTP 100 μM, RtcB 5 μM (FIG. 10B, 11B). From the text: FIG. 2. P. horikoshii RtcB catalyzed ligation of 3′-P and 5′-OH RNA termini. P. horikoshii RtcB requires Mn^2+ and GTP for ligation. […] The lane labeled “2′-deoxy” is a ligation reaction using the tRNA mimic substrate but with a 3′-P/2′-H termini on its 5′ fragment. The lane labeled “C98A” is a ligation reaction with RtcB that has a C98A substitution within the predicted metal-binding site.
RtcB from the archaeal domain of life likewise catalyzes the GTP-dependent ligation of 3′-P and 5′-OH RNA termini. The crystal structure of RtcB from a hyperthermophilic archaeon, Pyrococcus horikoshii, was determined as part of a structural genomics project (21). […] The P. horikoshii homologue has 29% amino-acid sequence identity to E. coli RtcB, and 49% identity to the human ligase (HSPC117). To investigate if RtcB from archaea catalyzes the GTP-dependent ligation of 3′-P and 5′-OH RNA termini, we synthesized a P. horikoshii rtcB gene and produced soluble enzyme in E. coli. […] The P. horikoshii ligase also required a 2′-OH on the terminal nucleotide of the 5′ RNA fragment.
RNA Ligation Assay. Ligation assays with single-stranded RNA as the substrate used two 10-nt oligonucleotides that were synthesized by Integrated DNA Technologies (15). […] The 3′ RNA fragment had hydroxyl groups on each end. The sequence of the 5′ fragment was FAM-5′-AAAUAACAAA-3′-P (SEQ ID NO:6) and the sequence of the 3′ RNA fragment was 5′-AAAUAACAAA-3′ (SEQ ID NO:6). Ligation reactions were performed in 10-μL solutions consisting of 50 mM Bis-Tris buffer, pH 7.0, containing NaCl (300 mM), […] (0.25 mM), GTP (100 μM), each RNA fragment (1 μM), and RtcB (10 μM). Reaction mixtures were incubated at 70° C. for 1 h prior to the addition of water (40 μL) and RNA-loading buffer (50 μL). Reaction mixtures were subjected to electrophoresis and visualized as previously described in the previous examples.
The ability of Archease to activate P. horikoshii RtcB was tested in reactions using ssRNA substrates. Ligation reactions included a 10-nt 5′ RNA fragment and a 10-nt 3′ RNA fragment. […] The 3′ RNA fragment had hydroxyl groups on each end. The sequence of the 5′ fragment was FAM-5′-AAAUAACAAA-3′-P (SEQ ID NO:6) and the sequence of the 3′ RNA fragment was 5′-AAAUAACAAA-3′ (SEQ ID NO:6). Ligation reactions were performed in 50-μL solutions consisting of 50 mM Tris-HCl buffer, pH 7.4, containing NaCl (300 mM), MnCl2 (0.25 mM), GTP (100 μM), RNA fragments (100 pmol of each), and P. horikoshii RtcB (5 μM).
Ligation reaction mixtures were set up as described above, and each was divided into two tubes. No Archease was added to one set of reaction mixtures (FIG. 10A), and Archease was added to a concentration of 0.25 μM to the other set (FIG. 10B). […] Archease had no effect on ligation reactions that used 2′-F RNA.
We tested the ability of Archease to enable RtcB to use cofactors other than GTP or dGTP. Ligation reaction mixtures with RtcB were set up as described above, and each was divided into two tubes. No Archease was added to one set of reaction mixtures (FIG. 11A), and Archease was added to a concentration of 0.25 μM to the other set (FIG. 11B). The various NTPs were included at a concentration of 100 μM.

The next data set concerns the target E. coli RtcA (Escherichia coli, UniProt P46849). Particulars: read-out: ATP KM; cited from earlier work.
The subject of data set [3] is P. horikoshii RtcB. Nature of the data set: 14C-labeled GTP binding assay. The arrangement: species or system Pyrococcus horikoshii. As for the experimental part:
Structure of the RtcB-Histidine-GMP Covalent Intermediate. To determine the optimal reaction conditions that enable formation of the RtcB-GMP covalent intermediate, ^14C-labeled GTP binding studies were performed (7). […] Under these conditions, the maximal GMP:RtcB molar ratio was determined to be (0.76±0.02):1. No binding of GTP to RtcB was detected in the absence of Mn(II). Using these reaction conditions, we formed the RtcB-GMP intermediate and removed unbound Mn(II), GTP, and PPi by gel-filtration chromatography. The protein was concentrated to 200 μM, and crystals of this complex diffracted to a resolution of 2.4 Å.
^14C-labeled GTP Binding Assays. […] Absorbance readings at A260 and A280 were obtained for each fraction. The protein fractions have high A280 readings, whereas the fractions with free GTP have higher A260 readings. In fractions containing protein, the RtcB concentrations were calculated from the A280 reading using an extinction coefficient of 62,340 M^−1 cm^−1 (ExPASy). The concentration of [8-^14C]GTP in the protein fractions was determined by liquid scintillation counting. Each 0.5-mL fraction was mixed with 3.5 mL of Ultima Gold MV liquid scintillation cocktail (Perkin Elmer) in a 4-mL vial, and counts were read on a MicroBeta TriLux liquid scintillation counter (Perkin Elmer). […] Under these conditions, the GTP:RtcB molar ratio was determined to be (0.76±0.02):1. […]

Data set [4] addresses T1, Pyrococcus horikoshii Archease.
T1 chain: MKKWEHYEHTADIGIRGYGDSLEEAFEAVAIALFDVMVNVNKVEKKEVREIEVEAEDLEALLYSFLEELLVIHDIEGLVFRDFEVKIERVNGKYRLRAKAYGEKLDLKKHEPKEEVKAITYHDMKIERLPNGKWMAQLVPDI

This is an account of results in patent US20130203635A1, “NUCLEIC ACID LIGATION METHOD” (priority 2012, published 2013).

A value given as a limit tells only on which side of the number the result lay.

By Km is commonly meant the concentration of substrate that gives half-maximal velocity.

E. coli RtcA, sequence (P46849 whole entry): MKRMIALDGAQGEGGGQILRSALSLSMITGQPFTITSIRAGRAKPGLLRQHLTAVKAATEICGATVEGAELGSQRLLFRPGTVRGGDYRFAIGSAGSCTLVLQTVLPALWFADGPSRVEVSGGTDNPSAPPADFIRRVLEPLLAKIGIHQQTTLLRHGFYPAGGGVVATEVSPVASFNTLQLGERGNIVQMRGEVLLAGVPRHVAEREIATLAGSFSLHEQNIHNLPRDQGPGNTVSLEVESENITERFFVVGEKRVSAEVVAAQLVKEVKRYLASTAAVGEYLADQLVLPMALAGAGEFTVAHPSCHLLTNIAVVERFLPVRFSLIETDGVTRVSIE
human RtcA, sequence (O00442 whole entry, the tested form may be a part): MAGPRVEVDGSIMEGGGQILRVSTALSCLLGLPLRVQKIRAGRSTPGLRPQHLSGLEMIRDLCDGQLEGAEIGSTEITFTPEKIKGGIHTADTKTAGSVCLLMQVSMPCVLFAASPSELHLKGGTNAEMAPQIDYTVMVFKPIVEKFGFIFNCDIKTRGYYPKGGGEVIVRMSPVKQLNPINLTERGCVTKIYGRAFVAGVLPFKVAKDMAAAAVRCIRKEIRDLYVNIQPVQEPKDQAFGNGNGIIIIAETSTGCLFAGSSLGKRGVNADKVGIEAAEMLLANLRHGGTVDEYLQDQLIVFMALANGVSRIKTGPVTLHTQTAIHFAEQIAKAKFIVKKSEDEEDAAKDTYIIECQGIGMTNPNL

As for `Nc1ncnc2c1ncn2[C@@H]1O[C@H](COP(=O)(O)OP(=O)(O)OP(=O)(O)O)[C@@H](O)[C@H]1O` [ATP, adenosine-5′-triphosphate], the “use as cofactor in ligation of 3′-P and 5′-OH RNA termini” value in data set [1] (in place of GTP, tRNA anticodon stem-loop mimic substrate, with Mn2+ (FIG. 1B, 1C)) was “unable to substitute for GTP”. The Km on human RtcA is 6 µM; at E. coli RtcA, 20 µM. In addition, the “use as cofactor in RNA ligation with Archease” value in the data set with P. horikoshii RtcB [2] is “enables RtcB to use ATP”.
In the case of `Nc1nc2c(ncn2[C@@H]2O[C@H](COP(=O)(O)OP(=O)(O)OP(=O)(O)O)[C@@H](O)[C@H]2O)c(=O)[nH]1` [GTP, guanosine-5′-triphosphate], the Michaelis constant (Km) in data set [1] (titration with GTP, tRNA mimic substrate (FIG. 1D)) is < 16 µM. Moreover, in the data set on P. horikoshii RtcB [2], the “use as cofactor in RNA ligation with Archease” value is recorded as “selectively activated”. Also, in the data set with P. horikoshii RtcB [3] (RtcB 100 μM, GTP 1 mM, MnCl2 2 mM, 70° C. for 45 min), the “maximal GMP:RtcB (GTP:RtcB) molar ratio” value was found to be 0.76±0.02. The “binding of GTP to RtcB” value in the data set with P. horikoshii RtcB [3] (in the absence of Mn(II)) is reported as “No binding”.

B1: Pyrococcus horikoshii 2',3'-cyclic phosphate RNA ligase (RtcB) (protein)
chain: MVVPLKRIDKIRWEIPKFDKRMRVPGRVYADEVLLEKMKNDRTLEQATNVAMLPGIYKYSIVMPDGHQGYGFPIGGVAAFDVKEGVISPGGIGYDINCGVRLIRTNLTEKEVRPRIKQLVDTLFKNVPSGVGSQGRIKLHWTQIDDVLVDGAKWAVDNGYGWERDLERLEEGGRMEGADPEAVSQRAKQRGAPQLGSLGSGNHFLEVQVVDKIFDPEVAKAYGLFEGQVVVMVHTGSRGLGHQVASDYLRIMERAIRKYRIPWPDRELVSVPFQSEEGQRYFSAMKAAANFAWANRQMITHWVRESFQEVFKQDPEGDLGMDIVYDVAHNIGKVEEHEVDGKRVKVIVHRKGATRAFPPGHEAVPRLYRDVGQPVLIPGSMGTASYILAGTEGAMKETFGSTCHGAGRVLSRKAATRQYRGDRIRQELLNRGIYVRAASMRVVAEEAPGAYKNVDNVVKVVSEAGIAKLVARMRPIGVAKG
Consider B1, for which, in data set [4], the “RNA ligation (urea-polyacrylamide gel of FAM-labeled ssRNA substrate and product)” value is on record as “the addition of Archease at concentrations that are lower than that of RtcB or RNA enhanced catalysis of RNA ligation”.
